The values below come from patent US20120219561A1, “Prophylaxis Against Cancer Metastasis” (Ingeneron, Inc., priority 2009, published 2012).

The subject of one assay is CXCR4 receptor. The following applies: animal and human studies; cited from earlier work.
For assay [1], the system named is LCN2 expression in SKBr3 cells. In words: Western blotting of LCN2 levels in SKBr3 cells incubated with pathway inhibitors. It counts as cell-based, human. The procedure: FIG. 3 depicts experiments showing that LCN2 (NGAL) is a down-stream target of the HER2/PI-3K/AKT/NF-κB pathway. A. Western blotting of LCN2 levels in HER2^+SKBr3 cells treated with Herceptin. B. Western blotting of LCN2 levels in SKBr3 cells incubated with PI-3K inhibitor LY 294002. C. Western blotting of LCN2 levels in SKBr3 cells incubated with the NF-KB inhibitor Bay11-7082. D. Western blotting of LCN2 levels in SKBr3 cells transiently expressing active or dominant negative AKT.
In addition, overexpression of dominant negative AKT led to reduced expression of LCN2, while overexpression of dominant active AKT increased LCN2 levels ([…]). […] Iannetti A, et al. “The neutrophil gelatinase-associated lipocalin (NGAL), a NF-kappaB-regulated gene, is a survival factor for thyroid neoplastic cells” Proc Natl Acad Sci USA 105(37) (2008) 14058.
For orientation: A western blot detects proteins with antibodies after separation by electrophoresis.

The subject of the next assay is 4T1 mammospheres. In words: Transwell migration assay of 4T1 mammospheres. The following applies: recombinant SDF-1 in serum-free medium in lower chamber. In kind it is cell-based, murine. As to the method:
FIG. 5 show the mediators for interaction between stem cells and cancer cells. (A) 4T1 cells and especially spheroid-forming 4T1 cells migrate toward the conditioned medium of mASC. 4T1 cells (3×10^4) were plated in the upper chamber of a 3 μm transwell system. The lower chamber was filled with 1 ml of 72 h conditioned medium of mASC. After 24 h of migration through the transwell membrane, cells were fixed and stained with calcein. The results are the mean and SD number of migrated cells per microscopic field under fluorescent microscope. (B) Data showing that mASC but not 4T1 cells produce SDF-1; 4T1 cells especially spheroid-forming 4T1 cells show higher messenger RNA levels of the specific receptor CXCR4. Secreted amounts of SDF-1a were measured by enzyme-linked immunosorbent assay and CXCR4 messenger RNA levels were determined by quantitative reverse transcription-polymerase chain reaction (RT-PCR). Reverse transcription-polymerase chain reaction results were normalized against GAPDH. (C) 4T1 cells and mammospheres migrate toward recombinant SDF-1 in a transwell system. Recombinant murine SDF-1 in serum-free medium was filled into the lower chamber in stated concentrations. CXCR4 inhibition was performed by 30 μg/ml neutralizing antibody 1 h before and during the migration assay. […]

`c1cc(CN2CCCNCCNCCCNCC2)ccc1CN1CCCNCCNCCCNCC1` [AMD3100]: the “hematopoietic stem cell mobilization” value in the assay on CXCR4 receptor is reported as “able to induce hematopoietic stem cell mobilization”.

For `Cc1ccc(S(=O)(=O)/C=C/C#N)cc1` [Bay11-7082], in assay [1], the LCN2 expression result was “reduced in a dose-dependent manner”.

“recombinant SDF-1: recombinant murine SDF-1 (CXCL12), ligand of CXCR4”: the “migration of 4T1 spheroid-forming cells” value in the assay with 4T1 mammospheres was “triggers migration”.
